Reference: patent publication US12310967B2, “Compositions and methods of treatment for neurological disorders comprising motor neuron diseases” (Gliapharm SA, priority 2017, dated 2025)
pEC50, pIC50: −log10 of the molar value. Where two headings read alike, the source gives them in different places.

How the values were obtained:
primary astrocytes [1] = assay: Intracellular glycogen quantification, Example 2; assay type: cell-based, mouse; details: 10 μM, 3 h
Protocol: Astrocytes grown on 12-well plates were used for intracellular glycogen quantifications. Cells were stimulated with Vehicle (DMSO), with compounds of the invention (10 μM), or with a positive control for 180 min, at 37° C. 5% CO2/95% air in D5030 medium complemented with
5 mM D-glucose and 44 mM sodium bicarbonate (pH 7.2). […] At the end of the stimulation, medium was removed and replaced with 600 μl of 30 mM Tris HCl, and stored at −20° C.
First, the amount of proteins in each sample was quantified to assess whether harvested astrocytes from primary cell cultures yielded enough and equivalent amounts of proteins on each replicates. Proteins were quantified using the micro BCA Protein Assay kit (Thermo Scientific), according to manufacturer's instructions. Next, intracellular glycogen concentrations were quantified using a 250 μl-aliquot of the same stimulated, thawed, and sonicated cell lysate. After an incubation period of 30 min at 90° C. and 400 rpm, 28 μl of a 0.1M acetic acid/sodium acetate buffer (pH 4.6) was added to each lysate aliquots, which were then separated in two. Each split aliquots received either 5 μl of amyloglucosidase or H2O, and incubated for 120 min at 37° C. After centrifugation at 16'000G for 5 min, 20 μl of supernatant were placed in a 96-well plate, to which 150 μl of a mix containing 0.67 mM ATP, 0.67 mM NADP, 1.8% hexokinase/glucose-6-phosphate dehydrogenase in a 0.1M Tris Buffer-HCl/3.3 mM magnesium (pH 8.1) buffer was added. Fluorescence intensity (340 nm excitation/440 nm emission) was measured using a Safire 2 spectrophotometer. Glucose concentrations were assessed relative to a glucose standard curve, and glycogen concentrations were calculated by subtracting glucose values of samples that had received amyloglucosidase (i.e. that had degraded their glycogen stores) to samples that had not. Intracellular levels of glycogen, which is the main source of glucose storage in the brain, were analyzed in primary astrocytes after treatment with compounds of interest (10 μM, 3 h) (FIG. 5B), and compound GP-0157 (0.1, 1, 10 μM, 3 h) (FIG. 20).

primary astrocytes [2] = assay: MTT viability assay; assay type: cell-based; details: Mus musculus, Astrocyte; CDC54K hits, 0-200 uM, 24 h
Protocol: For cell toxicity determination, astrocytes in 96-well plates were stimulated 24 h (37° C. 5% CO2/95% air) with a gradient ranging from 0.1 to 200 μM of tested compounds. After stimulation, 5 mg/ml thiazol blue tetrazolium bromide (MTT, Sigma-Aldrich) in warm D5030 complete medium was added to each well, and cells were incubated for 4 h at 37° C. (5% CO2). The medium was then removed by aspiration, and the reaction was stopped by the addition of 50 μl DMSO per well.
The amount of reduced MTT (formazan) solubilized in DMSO was then determined spectrophotometrically using absorbance at 570 nm (Safire 2; Tecan).
MTT cellular viability assay was performed on astrocytes exposed to Preswtick Hits (concentrations ranging from 0 uM to 200 uM).
MTT cellular viability assay was performed on astrocytes exposed to CDC54K Hits (concentrations ranging from 0 uM to 200 uM).

primary astrocytes [3] = assay: Extracellular lactate quantification; assay type: cell-based, mouse; details: for Score_LACTATE: Appendix I, secondary screening: extracellular lactate; for pEC50: Mus musculus, Astrocyte
In short: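 Astrocytes were stimulated 90 min at 37 °C in D5030 medium with 5 mM glucose and 44 mM bicarbonate, with compound at 0-100 μM. Extracellular lactate was measured enzymatically with LDH/NAD in glycine-semicarbazide buffer, pH 10, for 1 h at 37 °C. NADH fluorescence (340/450 nm) was converted to lactate using an L-lactate standard curve.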

primary astrocytes [4] = assay: Mitochondrial activity: production of H2O2 (Amplex red); assay type: cell-based; details: Mus musculus, Astrocyte, 1.5 h; CDC54K hits, 0-200 uM, 90 min
Protocol: Hydrogene peroxide (H2O2) released in the supernatant is detected enzymatically with Amplex red (Zhou, Diwu et al. 1997). Oxidation of Amplex red is catalysed by the horseradish peroxidase in presence of H2O2 into highly fluorescent resorufin. Fluorescence measure is read at 545 nm extinction, 590 nm emission. The amount of H2O2 was expressed relatively to the proteins content extracted from the cells in culture.
Mitochondrial respiration in astrocytes was measured through production of H2O2 at 90 min after stimulation with Prestwick Hits (10 uM each). […] CCCP (2 uM) was used as positive control.
Mitochondrial respiration in astrocytes was measured through production of H2O2 at 90 min after stimulation with CDC54K Hits (ranging from 0 to 200 uM).

[5] = test system: cerebral extracellular lactate; assay: In vivo pharmacodynamics - lactate biosensors; set-up: species or system mouse; details: 100 mg/kg per os, AUC ratio vs vehicle
Protocol: Extracellular levels of lactate were monitored in vivo using lactate biosensors (Pinnacle Technology), according to the manufacturer's instructions. Cannulae were surgically implanted in mice cerebral cerebral motor cortex areas M1/M2 (coordinates: +1.94 mm (to bregma), lateral −1.4 mm (to mideline), ventral −1.0 mm (to dura)) 5-7 days before administration of the compounds. Drugs were administered per os as previously described, and cerebral levels of extracellular lactate were dynamically recorded for 6 hours. Mice were administered vehicle alone first, followed 3 hours later by vehicle or drug (10 or 100 mg/kg). Area Under the Curve (AUC) quantifying the fluctuations of extracellular lactate concentrations for each of the compound tested was calculated using Graphad Prism and the ratio of AUC after drug over Vehicle administration was calculated. Groups of 8 male mice were used for each condition.
To measure biological effect of lead molecules in vivo in the brain, lactate levels were quantified after administration of the drug by using lactate biosensors implanted in the cortex of freely moving mice.

[6] = 1.5 h, CDC54K hits, 0-100 uM, 90 min, read-out: Lactate EC50

Structure (SMILES): Cc1ccccc1NC(=O)C1CCCN(c2ncnc3oc(C)c(C)c23)C1 (stereo not shown) [F228-0422]
- mobilization of intracellular glycogen (primary astrocytes [1]): significantly enhance
- pIC50 (primary astrocytes [2]): < 3.70
- Score_LACTATE (primary astrocytes [3]): 0.6364
- pEC50 (primary astrocytes [3]; [6]): 6.30
- pIC50 (primary astrocytes [4]): < 3.70

Structure (SMILES): CCc1nc(-c2csc(S(=O)(=O)NCc3ccc4c(c3)OCO4)c2)no1 [L287-0468]
- mobilization of intracellular glycogen (primary astrocytes [1]): significantly enhance
- pIC50 (primary astrocytes [2]): < 3.70
- Score_LACTATE (primary astrocytes [3]): 0.6179
- pEC50 (primary astrocytes [3]; [6]): 5.10
- pIC50 (primary astrocytes [4]): < 3.70

Structure (SMILES): CCn1nccc1-c1csc(S(=O)(=O)Nc2ccc(Cl)cc2F)c1 [L924-1031]
- mobilization of intracellular glycogen (primary astrocytes [1]): significantly enhance
- pIC50 (primary astrocytes [2]): < 3.70
- Score_LACTATE (primary astrocytes [3]): 1.632
- pEC50 (primary astrocytes [3]; [6]): 4.60
- pIC50 (primary astrocytes [4]): 4.31

Structure (SMILES): CSc1cccc(NS(=O)(=O)c2ccc3onc(C(=O)N4CCCC4)c3c2)c1 [L995-0125]
- pIC50 (primary astrocytes [2]): < 3.70
- Score_LACTATE (primary astrocytes [3]): 0.9122
- pEC50 (primary astrocytes [3]; [6]): 5.70
- pIC50 (primary astrocytes [4]): 3.76

Structure (SMILES): CC(=O)N1CCc2sc(S(=O)(=O)N3CCN(c4ccccc4C)CC3)cc2C1 [P025-0159]
- mobilization of intracellular glycogen (primary astrocytes [1]): significantly enhance
- pIC50 (primary astrocytes [2]): < 3.70
- Score_LACTATE (primary astrocytes [3]): 0.9232
- pEC50 (primary astrocytes [3]; [6]): 5.06
- pIC50 (primary astrocytes [4]): < 3.70
- cerebral lactate [5]: Significant increase

Structure (SMILES): c1ccc2c(c1)CCN(c1ncnc3sccc13)C2 [T0517-8250]
- mobilization of intracellular glycogen (primary astrocytes [1]): significantly enhance
- Score_LACTATE (primary astrocytes [3]): 0.9269

Structure (SMILES): N#Cc1ccc(C(=O)N2CCC(Nc3ncnc4c3CCC4)C2)cc1 (stereo not shown) [T636-2387]
- mobilization of intracellular glycogen (primary astrocytes [1]): significantly enhance
- pIC50 (primary astrocytes [2]): < 3.70
- Score_LACTATE (primary astrocytes [3]): 0.3005
- Score Lact. (primary astrocytes [3]; Appendix II, CDC54K library): 0.30
- pEC50 (primary astrocytes [3]; [6]): 4.94
- pEC50 (primary astrocytes [3]; Appendix II, lactate secretion, read-out: EC50): 5.17
- pIC50 (primary astrocytes [4]): < 3.70
- cerebral lactate [5]: Significant increase

Structure (SMILES): CCc1ccc(S(=O)(=O)N2CCSC2c2ccc(OC)c(OC)c2)cc1 (stereo not shown) [T5463586]
- pIC50 (primary astrocytes [2]): < 3.70
- Score_LACTATE (primary astrocytes [3]): 0.3936
- pEC50 (primary astrocytes [3]; [6]): 5.00
- pIC50 (primary astrocytes [4]): < 3.70

Structure (SMILES): COc1cc(C)c(Cl)cc1S(=O)(=O)NCc1ccncc1 [T5580243]
- pIC50 (primary astrocytes [2]): < 3.70
- Score_LACTATE (primary astrocytes [3]): 0.7229
- pEC50 (primary astrocytes [3]; [6]): 4.96
- pIC50 (primary astrocytes [4]): < 3.70
- cerebral lactate [5]: Significant increase

Structure (SMILES): CCc1ccc(S(=O)(=O)Nc2ccc3[nH]ncc3c2)cc1 [T5599014]
- pIC50 (primary astrocytes [2]): < 3.70
- Score_LACTATE (primary astrocytes [3]): 0.4419
- pEC50 (primary astrocytes [3]; [6]): 5.06
- pIC50 (primary astrocytes [4]): 3.80

Structure (SMILES): O=C1CCCN1c1ccc(S(=O)(=O)Nc2cccc(/C=C/c3ccccn3)c2)cc1 [T5644989]
- mobilization of intracellular glycogen (primary astrocytes [1]): significantly enhance
- pIC50 (primary astrocytes [2]): < 3.70
- Score_LACTATE (primary astrocytes [3]): 0.7859
- pEC50 (primary astrocytes [3]; [6]): 5.10
- pIC50 (primary astrocytes [4]): < 3.70

Structure (SMILES): Cc1nc2ccc(NS(=O)(=O)c3cccc(F)c3)cc2s1 [T6937001]
- mobilization of intracellular glycogen (primary astrocytes [1]): significantly enhance
- pIC50 (primary astrocytes [2]): < 3.70
- Score_LACTATE (primary astrocytes [3]): 0.9088
- pEC50 (primary astrocytes [3]; [6]): 4.94
- pIC50 (primary astrocytes [4]): < 3.70
